Reference: patent US20260028352A1, “MACROCYCLIC IMIDAZO [1,2-B] PYRIDAZINE DERIVATIVE, PREPARATION METHOD THEREFOR, AND USE THEREOF” (SUZHOU LANGRUI BIOPHARMACEUTICAL CO., LTD., priority 2022, published 2026)
Where two headings read alike, the source gives them in different places.

Tests used:
[1] = test system: Ba/F3-TPM3-NTRK1-WT cells; assay: Growth inhibition of Ba/F3-TPM3-NTRK1-WT cells (Cell Titer-Glo); format: cell-based; conditions: 72 hours, CTG; read-out: inhibitory activity IC50 Ba/F3-TPM3-NTRK1-WT
Procedure: (§1) Then the solutions were subjected to a gradient dilution with DMSO: a clean, sterile V-bottom 96-well microplate was placed in the biological safety cabinet. First, 4 μL of DMSO was added to well B2 and 10 μL of DMSO was added to wells B3-B11 respectively; Next, 6 μL of the 10 mM solution was added to well B2. The microplate was pipetted up and down 10 times for mixing. […] Mixing was performed by pipetting up and down 10 times. The solution was diluted in order until well B10. only DMSO was added to well B11 (no compound).
(§2) 6× Compound Solution Preparation (6-fold dilution, × represents dilution factor): (Initial final concentration: 10 μM), a clean, sterile V-bottom 96-well microplate was placed in the biological safety cabinet. 99 μL of cell culture medium was added to each well from B2 to G11. By using a 12-channel pipettor, 1 μL of the compound solution prepared in the previous step was added into the corresponding wells. The solutions were pipetted up and down 10 times to mix the solutions. The highest concentration of compound in this step was 60 μM.
(§3) Treatment of Cells: the above-prepared cell culture plate was taken out of the incubator. 20 μL of compound solution from each well was added to the corresponding cell culture wells. The lowest pipetting speed was used and touching the bottom of the plate was avoided. The culture plate was gently shaked to mix the compound solution, then the plate was returned to the incubator for further culture for 72 hours.
(§4) The highest treatment concentration of the compound was 10 μM. After 72 hours of treatment, the Cell Titer-Glo (CTG) assay was performed. First, the cell culture plate was removed from the CO2 incubator and allowed to stand at room temperature for 30 minutes to ensure uniform temperature of the plate. The pre-prepared Cell Titer-Glo reagent (following the manufacturer's instructions) was taken and allowed to stand at room temperature to thaw. 60 μL of Cell Titer-Glo reagent was added to each well containing cells. The cells were incubated on a horizontal shaker in a dark place at 225 rpm for 1 hour at room temperature. Then, a Tecan Spark microplate reader was used to read the plate using chemiluminescence according to the manufacturer's instructions.

TRKA^F589L kinase = TRKA^F589L kinase (Homo sapiens (Human), UniProt P04629, F589L); assay: Inhibitory activity against TRKA(F589L) kinase (Caliper mobility shift); format: biochemical; conditions: in vitro kinase assay
Chain of TRKA^F589L kinase (P04629 33-796 F589L): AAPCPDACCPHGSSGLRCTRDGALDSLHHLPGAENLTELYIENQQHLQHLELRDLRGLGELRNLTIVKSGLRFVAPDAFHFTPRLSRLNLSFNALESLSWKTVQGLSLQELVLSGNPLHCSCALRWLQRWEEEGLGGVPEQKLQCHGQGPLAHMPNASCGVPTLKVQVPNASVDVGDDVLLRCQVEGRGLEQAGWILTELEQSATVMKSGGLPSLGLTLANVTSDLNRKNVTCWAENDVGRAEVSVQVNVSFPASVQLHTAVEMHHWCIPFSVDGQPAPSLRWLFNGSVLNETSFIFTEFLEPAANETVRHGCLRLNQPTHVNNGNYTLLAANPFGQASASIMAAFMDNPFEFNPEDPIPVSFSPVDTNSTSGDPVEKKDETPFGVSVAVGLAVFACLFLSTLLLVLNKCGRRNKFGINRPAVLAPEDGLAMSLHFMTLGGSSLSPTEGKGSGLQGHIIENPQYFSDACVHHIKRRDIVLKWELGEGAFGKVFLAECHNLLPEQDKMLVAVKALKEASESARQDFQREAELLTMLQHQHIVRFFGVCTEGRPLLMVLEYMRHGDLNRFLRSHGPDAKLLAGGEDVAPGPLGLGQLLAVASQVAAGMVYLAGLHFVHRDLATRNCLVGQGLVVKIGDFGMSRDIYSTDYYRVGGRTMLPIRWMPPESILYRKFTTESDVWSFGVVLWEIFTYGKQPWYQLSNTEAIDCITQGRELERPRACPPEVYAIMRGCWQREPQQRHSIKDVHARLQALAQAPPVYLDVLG
Procedure: (§5) Kinase Assay Process: 1× Kinase buffer was prepared. […] The compounds were serially diluted into 10 concentrations ([…], 0.15, and 0.05 nM) using a Precision 3-fold dilution method. By using the Echo550 liquid handler, 250 nL of the 100-fold final concentration compound was transferred to an OptiPlate-384F plate. a 2.5× final concentration kinase solution was prepared using 1× Kinase buffer. 10 μL of the 2.5× final concentration kinase solution was added to the compound wells and the positive control wells, and 10 μL of 1× Kinase buffer was added to the negative control wells. The plate was centrifuged at 1000 rpm for 30 seconds, vortexed for mixing, and then incubated at room temperature for 10 minutes. A mixture of 5/3× final concentration of ATP and Kinase Substrate 22 was prepared using 1× Kinase buffer. 15 μL of the mixture of the 5/3× final concentration ATP and the substrate was added to initiate the reaction, the 384-well plate was centrifuged at 1000 rpm for 30 seconds, vortexed for mixing, and incubated at room temperature for the required time. 30 μL of the termination solution was added to stop the kinase reaction, the plate was centrifuged at 1000 rpm for 30 seconds, and vortexed for mixing. The conversion rate was measured using the Caliper EZ Reader.
(§6) Data Analysis: the inhibition rate was calculated as follows:
(§7) % Inhibition=(Conversion %_max−conversion %_sample)÷(Conversion %_max−conversion %_min)×100
(§8) Conversion %_sample is the conversion rate reading for the sample; Conversion %_min is the average value of the negative control wells, representing the conversion rate for wells without enzyme activity: Conversion %_max is the average value of the positive control wells, representing the conversion rate for wells without compound inhibition. A dose-response curve was fitted using the log concentration of the compound as the X-axis and the percentage inhibition as the Y-axis. The log(inhibitor) vs. response-variable slope of the GraphPad Prism 5 software was used to fit the dose-response curve, and the IC50 value for each compound was obtained. The calculation formula is:
(§9) Y=Bottom+(Top−Bottom)/(1+10^((Log IC50−X)*HillSlope)).
(§10) wherein X represents the concentration of the compound to be tested; Y represents the inhibition rate at the concentration X: Top refers to the maximum response: Bottom refers to the baseline response; HillSlope refers to the slope of the curve (i.e., the gradient).

TRKA^WT kinase = TRKA^WT kinase (Homo sapiens (Human), UniProt P04629); assay: Inhibitory activity against TRKA WT kinase (Caliper mobility shift); format: biochemical; conditions: in vitro kinase assay
Chain of TRKA^WT kinase (P04629 33-796): as the sequence (P04629 33-796 F589L) above, with L557F counted along it
Procedure: as §5, §6, §7, §8, §9, §10

[2] = ether bond
[3] = test system: Ba/F3-TPM3-NTRK1-G595R cells; assay: Growth inhibition of Ba/F3-TPM3-NTRK1-G595R cells (Cell Titer-Glo); format: cell-based; conditions: 72 hours, CTG; read-out: inhibitory activity IC50 Ba/F3-TPM3-NTRK1-G595R
Procedure: as §1, §2, §3, §4

[4] = test system: Ba/F3-TPM3-NTRK1-G667C cells; assay: Growth inhibition of Ba/F3-TPM3-NTRK1-G667C cells (Cell Titer-Glo); format: cell-based; conditions: 72 hours, CTG; read-out: inhibitory activity IC50 Ba/F3-TPM3-NTRK1-G667C
How it was run: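 Ba/F3 cells were exposed for 72 hours to serially DMSO-diluted compound at a top final concentration of 10 μM. Viability was read by Cell Titer-Glo luminescence after the plate equilibrated 30 min at room temperature and was then shaken 1 hour in the dark at room temperature.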

[5] = test system: Ba/F3-TPM3-NTRK1-WT subcutaneous xenograft; assay: Efficacy in Ba/F3-TPM3-NTRK1-WT subcutaneous xenograft tumor model; format: in vivo, NOD-SCID mice
Procedure: Cell culture: Ba/F3-TPM3-NTRK1-WT cells were cultured in RPMI 1640 medium containing 10% FBS. Ba/F3-TPM3-NTRK1-WT cells in logarithmic growth phase were collected, the required total number of cells was calculated, and the cells were resuspended in a suitable volume of PBS mixture (PBS:Matrigel=1:1 (v/v)) with a cell suspension concentration of 5×106/0.1 mL for subcutaneous inoculation on the right side of NOD-SCID mice.
Method: On Day 0, all animals were subcutaneously inoculated with 0.1 mL (5×10^6 Ba/F3-TPM3-NTRK1-WT cells) of cell suspension (PBS:Matrigel=1:1, VN) on the right back. After the tumor growed to an average volume of 178.3 mm3, the mice were grouped and administrated. The average tumor volume of the enrolled animals is 178.3 mm^3. The mice were divided into two groups. Group-1 (Vehicle) and Group-2 (10 mg/kg, I-52). Each group consisted of 6 animals. All groups were administered orally by gavage with a frequency of BID, for a total of 29 days.
(§11) Tumor volume inhibition rate TGITV (%): TGI %=(1−ΔT/ΔC)×100%, wherein ΔC is the tumor volume Ct−C0 of the control group, C0 is the average tumor volume of the control group at the time of grouping, Ct is the average tumor volume of the control group after treatment, ΔT is the tumor volume Tt−T0 of the treatment group, T0 is the average tumor volume of the […] after treatment.
Pharmacological activity was evaluated based on tumor suppression rate (TGITV), and tolerance was evaluated based on changes in animal weight and mortality.

[6] = test system: Ba/F3-TPM3-NTRK1-G667C subcutaneous xenograft; assay: Efficacy in Ba/F3-TPM3-NTRK1-G667C subcutaneous xenograft tumor model; format: in vivo, NOD-SCID mice; conditions: 10 mg/kg oral BID
Procedure: Cell Culture: Ba/F3-TPM3-NTRK1-G667C cells were cultured in RPMI 1640 medium containing 10% FBS. Log-phase cells were collected, and the total number of cells required was calculated. Cells were resuspended in an appropriate volume of PBS mixture solution (PBS:Matrigel=1:1, v/v) at a concentration of 5×10^6 cells/0.1 mL for subcutaneous inoculation into the right flank of NOD-SCID mice.
Method: at Day 0, all animals were subcutaneously inoculated with 0.1 mL (5×10^6 cells) of Ba/F3-TPM3-NTRK1-G667C cell suspension (PBS:Matrigel=1:1, v/v) on the right flank. When the tumors reached an average volume of 197.2 mm^3, dosing and grouping began. […] The animals were divided into two groups: Group 1: Vehicle control; Group 2: 10 mg/kg of compound 1-52. Each group contained six mice. All groups were administered orally via gavage twice daily (BID) for 29 days.
as §11, with “Tumor Volume Inhibition Rate TGITV(%):” for “Tumor volume inhibition rate TGITV (%):”, “TGI %=(1−ΔT/ΔC)×100%; Where:” for “TGI %=(1−ΔT/ΔC)×100%, wherein”, “group, To” for “group, T0”
Pharmacological activity was evacuated based on tumor suppression rate (TGITV), and tolerance was assessed based on changes in animal weight and mortality.

CC1Nc2ccc3ncc(n3n2)-c2cc(ccn2)COc2ccccc21 (stereo not shown) [Example I-3, (E)-6-methyl-4-oxa-7-aza-1(3,6)-imidazo[1,2-b]pyridazine-2(2,4)-pyridine-5(1,2)-benzenacycloheptaphane]
IC50 [1]: 17 nM | IC50 (TRKA^F589L kinase): 7.1 nM | IC50 (TRKA^WT kinase): 5.9 nM | ring closure, isolated yield ([2]; from CC(Nc1ccc2ncc(-c3cc(CO)ccn3)n2n1)c1ccccc1O, 13-membered ring, SOCl2, K2CO3, DCM/DMF, 11.0 mM, 90.0 °C, 2.0 h, 2 steps): 39.2% | IC50 [3]: 527 nM | IC50 [4]: 526 nM

CC1Nc2ccc3ncc(n3n2)-c2cc(ccn2)COc2ncccc21 (stereo not shown) [Example I-4, (E)-6-methyl-4-oxa-7-aza-1(3,6)-imidazo[1,2-b]pyridazina-2(2,4), 5(2,3)-dipyridinacycloheptaphane]
IC50 (TRKA^F589L kinase): 5.8 nM | IC50 (TRKA^WT kinase): < 3 nM | ring closure, isolated yield ([2]; from CC(Nc1ccc2ncc(-c3cc(CO)ccn3)n2n1)c1cccnc1O, 13-membered ring, SOCl2, K2CO3, DCM/DMF, 22.0 mM, 90.0 °C, 2.0 h, 2 steps): 30.2% | IC50 [4]: < 100 nM

(E)-4-methyl-6-oxa-3-aza-2(3,6)-imidazo [1,2-b]pyridazina-1(2,4)-pyridina-5(1,2)-benzenacyclooctaphane
ring closure, isolated yield ([2]; 14-membered ring, PPh3/DIAD, THF, 15.8 mM, 60.0 °C): 18.4%

Fc1cnc2c(c1)[C@H]1C[C@H](F)CN1c1ccc3ncc(n3n1)-c1cc(ccn1)CO2 [Example I-52, (14bR,16S,E)-13,16-difluoro-14b,15,16,17-tetrahydro-9H-1,19-etheno-4,8-(metheno)imidazo[1,5-h]pyrido[2,3-b]pyrrolo[2,1-d][1]oxa[5,7,8,11]tetraazacyclopentadecine]
IC50 [1]: 0.02 nM | Average Tumor Volume ([5]; Day 4, 10 mg/kg oral BID): 182.5 mm^3 | Average Tumor Volume ([5]; Day 6, 10 mg/kg oral BID): 192.7 mm^3 | Average Tumor Volume ([5]; Day 8, 10 mg/kg oral BID): 176.5 mm^3 | Average Tumor Volume ([5]; Day 10, 10 mg/kg oral BID): 146.3 mm^3 | Average Tumor Volume ([5]; Day 12, 10 mg/kg oral BID): 113.1 mm^3 | Average Tumor Volume ([5]; Day 14, 10 mg/kg oral BID): 74.4 mm^3 | Average Tumor Volume ([5]; Day 15, 10 mg/kg oral BID): 67.9 mm^3 | Average Tumor Volume ([5]; Day 17, 10 mg/kg oral BID): 60.1 mm^3 | Average Tumor Volume ([5]; Day 19, 10 mg/kg oral BID): 32.8 mm^3 | Average Tumor Volume ([5]; Day 21, 10 mg/kg oral BID): 0.0 mm^3 | Average Tumor Volume ([5]; Day 23, 10 mg/kg oral BID): 0.0 mm^3 | Average Tumor Volume ([5]; Day 25, 10 mg/kg oral BID): 0.0 mm^3 | Average Tumor Volume ([5]; Day 27, 10 mg/kg oral BID): 0.0 mm^3 | TGITV ([5]; Day 29, 10 mg/kg oral BID): 112% | Tumor Regression Rate ([5]; Day 29, 10 mg/kg oral BID): 100% | Tumor Volume (average) ([5]; Day 29, 10 mg/kg oral BID): 0.0 mm^3 | Average Tumor Volume ([5]; Day 29, 10 mg/kg oral BID (Table 7)): 0.0 mm^3 | IC50 [3]: 0.3 nM | IC50 [4]: 0.88 nM | Average Body Weight ([6]; Day 2): 19.1 g | Average Body Weight ([6]; Day 7): 20.9 g | Average Body Weight ([6]; Day 9): 21.0 g | Average Body Weight ([6]; Day 11): 21.8 g | Average Body Weight ([6]; Day 13): 22.0 g | Average Body Weight ([6]; Day 15): 22.8 g | Average Body Weight ([6]; Day 17): 23.0 g | Average Body Weight ([6]; Day 19): 23.7 g | Average Body Weight ([6]; Day 21): 23.3 g | Average Body Weight ([6]; Day 23): 24.3 g | Average Body Weight ([6]; Day 25): 24.7 g | Average Body Weight ([6]; Day 27): 25.3 g | Average Body Weight ([6]; Day 29): 24.6 g | Relative Tumor Volume (average) ([6]; Day 29): 308.6% | TGITV ([6]; Day 29): 84% | Tumor Volume (average) ([6]; Day 29): 636.5 mm^3

CC1Nc2ccc3ncc(n3n2)-c2cc(ccn2)OCc2ncc(F)cc21 (stereo not shown) [Example I-12, (E)-5^5-fluoro-6-methyl-3-oxa-7-aza-1(3,6)-imidazo[1,2-b]pyridazina-2(2,4), 5(2,3)-dipyridinacycloheptaphane]
ring closure, isolated yield ([2]; from CC(Nc1ccc2ncc(-c3cc(O)ccn3)n2n1)c1cc(F)cnc1CO, 13-membered ring, SOCl2, then K2CO3, DCM/DMF, then DMF (DCM evaporated), 15.7 mM, 90.0 °C, 2.0 h, 2 steps): 22.6% | IC50 [4]: < 100 nM
